Earlier results in patent publication US5773415A, “Use of des-aspartate-angiotensin I as an anti-cardiac hypertrophic agent” (National University of Singapore, priority 1995, dated 1998).

Tested on: specific aminopeptidase
Settings: homogenates of rat aorta and hypothalamus

| Inhibition of the aminopeptidase degrading angiotensin I to des-Aspartate-angiotensin I | Compound |
| --- | --- |
| not inhibited | O=C(O)CN(CCN(CC(=O)O)CC(=O)O)CC(=O)O [EDTA] |
| not inhibited | CC(C)C[C@@H](N)[C@H](O)C(=O)N[C@H](C(=O)N[C@H](C(=O)N[C@@H](CC(=O)O)C(=O)O)C(C)C)C(C)C [amastatin] |
| not inhibited | CC(C)C[C@H](NC(=O)[C@@H](O)[C@H](N)Cc1ccccc1)C(=O)O [bestatin] |
